Measured values: EP4458820A1 (Shanghai Institute of Materia Medica, Chinese Academy of …, priority 2021, dated 2023)

Assays:
THR-β = target: T1, THR-β (Homo sapiens, UniProt P10828); test: in vitro THR β agonist activity at the molecular level (AlphaScreen detection); format: biochemical; details: in vitro molecular evaluation system; for Emax: read-out: THR-β Rel % Activity of T3; for Selectivity: THR-β versus THR-α
T1 construct: GST; made in house
T1 sequence (P10828 1-461): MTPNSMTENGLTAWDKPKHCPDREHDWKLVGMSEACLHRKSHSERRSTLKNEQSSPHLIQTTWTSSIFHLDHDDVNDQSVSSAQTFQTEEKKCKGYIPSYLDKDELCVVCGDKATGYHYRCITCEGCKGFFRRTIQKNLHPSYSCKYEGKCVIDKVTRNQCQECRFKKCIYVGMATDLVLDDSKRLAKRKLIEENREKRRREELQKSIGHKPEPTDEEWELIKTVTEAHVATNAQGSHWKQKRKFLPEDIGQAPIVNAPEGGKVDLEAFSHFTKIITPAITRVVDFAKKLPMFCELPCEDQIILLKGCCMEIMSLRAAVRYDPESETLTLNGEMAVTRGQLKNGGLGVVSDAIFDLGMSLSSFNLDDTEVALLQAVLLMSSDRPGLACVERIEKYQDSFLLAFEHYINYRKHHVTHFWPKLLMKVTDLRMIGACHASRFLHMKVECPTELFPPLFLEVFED
Experimental: At the molecular level, the binding ability of the compound to thyroid hormone receptor β (THR β) was measured by AlphaScreen detection. Firstly, recombinant GST-THR β fusion proteins were constructed, followed by compound-receptor binding reactions in 384-well plates.

THR-α = target: T2, THR-α (Homo sapiens, UniProt P10827); test: in vitro agonist activity at the molecular level (AlphaScreen detection), THR-α; format: biochemical; details: in vitro molecular evaluation system; for Emax: read-out: THR-α Rel % Activity of T3
T2 sequence (P10827 1-410 isoform P10827-2): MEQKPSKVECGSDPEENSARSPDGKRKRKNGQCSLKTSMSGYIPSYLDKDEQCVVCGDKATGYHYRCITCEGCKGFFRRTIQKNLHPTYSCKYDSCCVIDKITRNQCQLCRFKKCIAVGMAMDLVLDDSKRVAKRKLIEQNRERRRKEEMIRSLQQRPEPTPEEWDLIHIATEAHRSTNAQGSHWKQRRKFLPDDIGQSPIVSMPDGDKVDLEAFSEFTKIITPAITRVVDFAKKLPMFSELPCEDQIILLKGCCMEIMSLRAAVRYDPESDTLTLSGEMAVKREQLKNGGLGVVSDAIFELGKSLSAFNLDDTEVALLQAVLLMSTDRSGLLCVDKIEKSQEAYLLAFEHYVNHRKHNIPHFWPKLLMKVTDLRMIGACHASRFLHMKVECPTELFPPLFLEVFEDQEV

## Cc1cc(-c2cccs2)nc2ccc(Oc3c(Cl)cc(-n4nc(C#N)c(=O)[nH]c4=O)cc3Cl)cc12 [Compound 19, 2-(3,5-Dichloro-4-((2-(thiophen-2-yl) -4-methylquinolin-6-yl)oxy)phenyl) -3,5-dioxo-2,3,4,5-tetrahydro-1,2,4-triazine-6-carbonitrile]
THR-β
  EC50: 379 nM
  Emax: 71.8%
THR-α
  EC50: > 50000 nM

## Cc1cc(-c2ccoc2)nc2ccc(Oc3c(Cl)cc(-n4nc(C#N)c(=O)[nH]c4=O)cc3Cl)cc12 [Compound 17]
THR-β
  EC50: 296 nM
  Selectivity: 4.2
  Emax: 73.7%
THR-α
  EC50: 1240 nM
  Emax: 57.6%

## Cc1cc(C2CCCCC2)nc2ccc(Oc3c(Cl)cc(-n4nc(N)c(=O)[nH]c4=O)cc3Cl)cc12 [Compound 134, 6-amino-2-(3,5-dichloro-4-((2-cyclohexyl-4-methylquinolin-6-yl)oxy)phenyl)-1,2,4-triazine-3,5(2H,4H)-dione]
THR-β
  EC50: 120 nM
  Selectivity: 4.2
  Emax: 92.3%
THR-α
  EC50: 429 nM
  Emax: 38.4%

## Cc1cc(-c2ccco2)nc2ccc(Oc3c(Cl)cc(-n4nc(C#N)c(=O)[nH]c4=O)cc3Cl)cc12 [Compound 15, 2-(3,5-Dichloro-4-((2-(furan-2-yl)-4-methylquinolin-6-yl)oxy)phenyl) -3,5-dioxo-2,3,4,5-tetrahydro-1,2,4-triazine-6-carbonitrile]
THR-β
  EC50: 71.7 nM
  Selectivity: 3.9
  Emax: 84.3%
THR-α
  EC50: 280 nM
  Emax: 62.5%

## Nc1nn(-c2cc(Cl)c(Oc3ccc4nccc(Cl)c4c3)c(Cl)c2)c(=O)[nH]c1=O [Compound 99, 6-amino-2-(3,5-dichloro-4((4-chloroquinolin-6-yl)oxy)phenyl)-1,2,4-triazine-3,5(2H,4H)-dione]
THR-β
  EC50: 31.5 nM
  Selectivity: 7.85
  Emax: 76.3%
THR-α
  EC50: 248 nM
  Emax: 67.5%

## Cc1cc(-c2ccc(F)cc2)nc2ccc(Oc3c(Cl)cc(-n4nc(N)c(=O)[nH]c4=O)cc3Cl)cc12 [Compound 60, 6-amino-2-(3,5-dichloro-4-((2-(4-fluorophenyl)-4-methylquinolin-6-yl)oxy)phenyl)-1,2,4-triazine-3,5(2H,4H)-dione]
THR-β
  EC50: 8.3 nM
  Selectivity: 6.89
  Emax: 83%
THR-α
  EC50: 57.2 nM
  Emax: 62.7%
